# Measurements from patent US10183944B2 (Asana Biosciences, LLC, priority 2011, dated 2019).
# Where a name gives a salt, the structure may show the parent alone.
# What was measured:
# [1] = molecular target: JAK2 (Homo sapiens (Human), UniProt O60674); assay: Inhibition of enzymatic JAK2 kinase activity (TR-FRET); assay type: biochemical; details: read-out: IC50 JAK
# Description: The objective of this assay was to screen compounds in a Time-resolved fluorescence resonance energy transfer (TR-FRET) Enzymatic assay method for their potential to inhibit JAK2 (Janus kinase) activity.
# TR-FRET assays are homogeneous proximity assays where Eu-labeled antiphosphotyrosine antibody binds to the phosphorylated substrates labeled with Ulight fluorescence acceptor. Eu can transfer energy to Ulight accepter in the complex and the interaction of two dye-labeled binding partners is detected by the energy transfer between a donor and an acceptor dye, and the subsequent light emission by the acceptor dye. The intensity of the light emission is proportional to the level of Ulight peptide phosphorylation.
# Two μL of 10% DMSO in blank, substrate control and positive control wells and 2 μL of test compound in test wells was added. Thirteen μL of assay buffer in blank and substrate control wells and 13 μL of Enzyme buffer mix in positive and test wells was added. The reaction mixture was incubated for 30 minutes at RT on a plate shaker. Ultra Light-pGT substrate (5 μL) [poly Glu-Tyr (4:1) labeled with U Light TM dye, a tyrosine kinase substrate] and ATP mix was added to all wells. The reaction plate was incubated for 60 minutes at RT on a plate shaker. The reaction was stopped by adding 40 mM EDTA (10 μL) in buffer. Ten μL of antibody was added to all the wells. The plate was read in a Wallac® 1420 Multilabel Counter Victor 3 instrument (Ex: 340 nm Em: 615 & 665 nm) The following calculations were made:
# F@ 665 Value-Buffer blank
# F@ 615 Value-Buffer blank
# Ratio of F@665/F@615-Substrate Blank
# % Activity=(Test Sample/Positive control)*100%
# Inhibition=(100−% Activity)
# [2] = molecular target: Syk (356-635 amino acids) catalytic domain (Homo sapiens (Human), UniProt P43405); assay: Inhibition of enzymatic Syk kinase activity (radiometric); assay type: biochemical; details: read-out: IC50 Syk
# Outline: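 Radiometric filter-binding format: 32P transfer from γ-32P-ATP onto pG4T, scintillation-counted after acid washes of P81 paper. Syk kinase domain (356-635), 0.035–7.5 ng per reaction, was exposed to compound for 30 minutes at room temperature before a 10-minute, 30° C. reaction with ATP (100 μM stock). Inhibition derived from counts with versus without compound.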
# Chain of JAK2 (O60674 808-1132): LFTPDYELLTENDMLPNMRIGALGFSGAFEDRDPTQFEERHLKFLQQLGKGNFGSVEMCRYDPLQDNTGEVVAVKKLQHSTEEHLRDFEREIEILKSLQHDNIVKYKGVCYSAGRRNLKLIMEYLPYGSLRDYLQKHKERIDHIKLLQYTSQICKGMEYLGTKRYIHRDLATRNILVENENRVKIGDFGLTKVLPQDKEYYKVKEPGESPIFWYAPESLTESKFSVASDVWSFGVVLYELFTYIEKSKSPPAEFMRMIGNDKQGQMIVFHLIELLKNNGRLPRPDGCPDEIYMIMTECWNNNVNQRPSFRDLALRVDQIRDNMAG
SMILES,IC50 [1] [nM],IC50 [2] [nM]
"N#CCC1CCN(c2nc(Nc3ccc(N4CCC(CCCO)CC4)cc3)c3c(=O)[nH]ncc3n2)CC1 [Example 205, 2-(1-(4-((4-(4-(3-hydroxypropyl)piperidin-1-yl)phenyl)amino)-5-oxo-5,6-dihydropyrimido[4,5-d]pyridazin-2-yl)piperidin-4-yl)acetonitrile]",< 50,< 50
"CCN1CCN(c2ccc(Nc3nc(-c4ccc(OC(F)(F)F)cc4)nc4cn[nH]c(=O)c34)cc2)CC1 [Example 28, 4-(4-(4-ethylpiperazin-1-yl)phenylamino)-2-(4-(trifluoromethoxy)phenyl) pyrimido[4,5-d]pyridazin-5(6H)-one]",> 100,> 100
"O=c1[nH]ncc2nc(N3CCCCCC3)nc(Nc3ccc(OCCCN4CCNCC4)cc3)c12 [Example 136, 2-(azepan-1-yl)-4-((4-(3-(piperazin-1-yl)propoxy)phenyl)amino)pyrimido[4,5-d]pyridazin-5(6H)-one]",< 50,< 50
"N#CCC1CCN(c2ccc(Nc3nc(N4CCCCCC4)nc4cn[nH]c(=O)c34)cc2)CC1 [Example 113, 2-(1-(4-((2-(azepan-1-yl)-5-oxo-5,6-dihydropyrimido[4,5-d]pyridazin-4-yl)amino)phenyl)piperidin-4-yl)acetonitrile]",< 10,> 100
"N#CCC1CCN(c2nc(Nc3ccc(OC4CCN(CC(=O)O)CC4)cc3)c3c(=O)[nH]ncc3n2)CC1 [Example 262, 2-(4-(4-((2-(4-(cyanomethyl)piperidin-1-yl)-5-oxo-5,6-dihydropyrimido[4,5-d]pyridazin-4-yl)amino)phenoxy)piperidin-1-yl)acetic acid]",< 10,< 50
"N#CCC1CCN(c2nc(Nc3ccc(N4CCC(CCF)CC4)cc3)c3c(=O)[nH]ncc3n2)CC1 [Example 299, 2-(1-(4-((4-(4-(2-fluoroethyl)piperidin-1-yl)phenyl)amino)-5-oxo-5,6-dihydropyrimido[4,5-d]pyridazin-2-yl)piperidin-4-yl)acetonitrile]",< 50,< 50
"O=C(O)CN1CCN(c2ccc(Nc3nc(-c4ccccc4)nc4cn[nH]c(=O)c34)cc2)CC1 [Example 12, 2-(4-(4-(5-oxo-2-phenyl-5,6-dihydropyrimido[4,5-d]pyridazin-4-ylamino)phenyl)piperazin-1-yl) acetic acid]",< 10,< 50
"O=C(O)C1CCN(c2nc(Nc3ccc(CN4CCNCC4)cc3)c3c(=O)[nH]ncc3n2)CC1 [Example 51, 1-(5-oxo-4-((4-(piperazin-1-ylmethyl)phenyl)amino)-5,6-dihydropyrimido[4,5-d]pyridazin-2-yl)piperidine-4-carboxylic acid hydrochloride]",> 100,> 100
"N#CCC1CCN(c2ccc(Nc3nc(N4CCCCCC4)nc4cn[nH]c(=O)c34)cc2)CC1 [Example 80, 2-(1-(4-((2-(azepan-1-yl)-5-oxo-5,6-dihydropyrimido[4,5-d]pyridazin-4-yl)amino)phenyl)piperidin-4-yl)acetonitrile]",< 10,< 50
"O=c1[nH]ncc2nc(N3CCCCCC3)nc(Nc3ccc(OCCN4CCN(CCO)CC4)cc3)c12 [Example 239, 2-(azepan-1-yl)-4-((4-(2-(4-(2-hydroxyethyl)piperazin-1-yl)ethoxy)phenyl)amino)pyrimido[4,5-d]pyridazin-5(6H)-one]",< 50,< 100
"CC(C)(O)C(=O)N1CCN(c2ccc(Nc3nc(N4CCCCCC4)nc4cn[nH]c(=O)c34)cn2)CC1 [Example 238, 2-(azepan-1-yl)-4-((6-(4-(2-hydroxy-2-methylpropanoyl)piperazin-1-yl)pyridin-3-yl)amino)pyrimido[4,5-d]pyridazin-5(6H)-one]",< 10,< 50
"O=C(O)C1CC12CCN(c1ccc(Nc3nc(N4CCCCCCC4)nc4cn[nH]c(=O)c34)cc1)CC2 (stereo not shown) [Example 141, 6-(4-((2-(azocan-1-yl)-5-oxo-5,6-dihydropyrimido[4,5-d]pyridazin-4-yl)amino)phenyl)-6-azaspiro[2.5]octane-1-carboxylic acid]",< 10,< 50
"O=c1[nH]ncc2nc(N3CCCCCC3)nc(Nc3ccc(OCCO)cc3)c12 [Example 294, 2-(azepan-1-yl)-4-((4-(2-hydroxyethoxy)phenyl)amino)pyrimido[4,5-d]pyridazin-5(6H)-one]",< 50,< 50
"N#CCC1CCN(c2ccc(Nc3nc(N4CCC(CC#N)CC4)nc4cn[nH]c(=O)c34)cn2)CC1 [Example 114, 2-(1-(5-((2-(4-(cyanomethyl)piperidin-1-yl)-5-oxo-5,6-dihydropyrimido[4,5-d]pyridazin-4-yl)amino)pyridin-2-yl)piperidin-4-yl)acetonitrile]",< 50,< 10
"N#CCC1CCN(c2nc(Nc3ccc(N4CCN(CCC(=O)O)CC4)cc3)c3c(=O)[nH]ncc3n2)CC1 [Example 220, 3-(4-(4-((2-(4-(cyanomethyl)piperidin-1-yl)-5-oxo-5,6-dihydropyrimido[4,5-d]pyridazin-4-yl)amino)phenyl)piperazin-1-yl)propanoic acid]",< 10,< 10
"N#CCC1CCN(c2nc(Nc3ccc(-c4nn[nH]n4)cc3)c3c(=O)[nH]ncc3n2)CC1 [Example 245, 2-(1-(4-((4-(2H-tetrazol-5-yl)phenyl)amino)-5-oxo-5,6-dihydropyrimido[4,5-d]pyridazin-2-yl)piperidin-4-yl)acetonitrile]",< 50,< 50
"O=c1[nH]ncc2nc(N3CCCCCC3)nc(Nc3ccc(N4CCC(O)CC4)nc3)c12 [Example 217, 2-(azepan-1-yl)-4-((6-(4-hydroxypiperidin-1-yl)pyridin-3-yl)amino)pyrimido[4,5-d]pyridazin-5(6H)-one]",< 50,< 50
"COc1ccccc1-c1nc(Nc2ccc(N3CCC4(CC3)CC4C(=O)O)cc2)c2c(=O)[nH]ncc2n1 (stereo not shown) [Example 53, 6-(4-((2-(2-methoxylphenyl)-5-oxo-5,6-dihydropyrimido[4,5-d]pyridazin-4-yl)amino)phenyl)-6-azaspiro[2.5]octane-1-carboxylic acid]",< 100,> 100
"CN1CCN(c2ccc(Nc3nc(N4CCCCCC4)nc4cn[nH]c(=O)c34)cc2)CC1 [Example 247, 2-(azepan-1-yl)-4-((4-(4-methylpiperazin-1-yl)phenyl)amino)pyrimido[4,5-d]pyridazin-5(6H)-one]",< 10,< 10
"O=c1[nH]ncc2nc(N3CC[S+]([O-])CC3)nc(Nc3ccc(CN4CCNCC4)cc3)c12 [Example 44, 2-(1-oxidothiomorpholino)-4-((4-(piperazin-1-ylmethyl)phenyl)amino) pyrimido[4,5-d]pyridazin-5(6H)-one hydrochloride]",> 100,> 100
"N#CCC(=O)N1CCN(c2ccc(Nc3nc(N4CCC(CC#N)CC4)nc4cn[nH]c(=O)c34)cn2)CC1 [Example 237, 3-(4-(5-((2-(4-(cyanomethyl)piperidin-1-yl)-5-oxo-5,6-dihydropyrimido[4,5-d]pyridazin-4-yl)amino)pyridin-2-yl)piperazin-1-yl)-3-oxopropanenitrile]",< 10,< 50
"CN1CCN(c2nc(Nc3ccc(CN4CCNCC4)cc3)c3c(=O)[nH]ncc3n2)CC1 [Example 45, 2-(4-methylpiperazin-1-yl)-4-((4-(piperazin-1-ylmethyl)phenyl)amino) pyrimido[4,5-d]pyridazin-5(6H)-one hydrochloride]",> 100,> 100
"CCN(CC)CCOc1ccc(Nc2nc(N3CCC(CC#N)CC3)nc3cn[nH]c(=O)c23)cc1 [Example 224, 2-(1-(4-((4-(2-(diethylamino)ethoxy)phenyl)amino)-5-oxo-5,6-dihydropyrimido[4,5-d]pyridazin-2-yl)piperidin-4-yl)acetonitrile]",< 50,< 50
O=C(O)C1CC12CCN(c1ccc(Nc3nc(N4CCCCCC4)nc4cn[nH]c(=O)c34)cn1)CC2 (stereo not shown) [Example 134],< 10,< 50
"N#CCC1CCN(c2nc(Nc3ccc(N4CCCC(CCO)C4)cc3)c3c(=O)[nH]ncc3n2)CC1 (stereo not shown) [Example 286, 2-(1-(4-((4-(3-(2-hydroxyethyl)piperidin-1-yl)phenyl)amino)-5-oxo-5,6-dihydropyrimido[4,5-d]pyridazin-2-yl)piperidin-4-yl)acetonitrile]",< 50,< 50
"N#CCC1CCN(c2nc(Nc3ccc(CCCO)cc3)c3c(=O)[nH]ncc3n2)CC1 [Example 309, 2-(1-(4-((4-(3-hydroxypropyl)phenyl)amino)-5-oxo-5,6-dihydropyrimido[4,5-d]pyridazin-2-yl)piperidin-4-yl) acetonitrile]",< 50,< 50
